Target: T1, human glutathione transferase A1-1 (hGSTA1-1) (Homo sapiens, UniProt P08263)
T1 construct: gene GSTA1
T1 sequence (P08263 2-222): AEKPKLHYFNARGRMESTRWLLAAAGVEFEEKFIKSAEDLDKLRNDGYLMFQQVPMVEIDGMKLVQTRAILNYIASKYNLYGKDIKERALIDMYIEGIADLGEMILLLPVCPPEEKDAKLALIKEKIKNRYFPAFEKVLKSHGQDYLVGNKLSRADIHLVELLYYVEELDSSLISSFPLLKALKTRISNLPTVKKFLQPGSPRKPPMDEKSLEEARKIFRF
Experiment: CDNB/GSH conjugation assay with purified recombinant hGSTA1-1; IC50 and steady-state inhibition kinetics (Ki […] vs GSH, […] vs CDNB)
Type: biochemical
Text: Fisetin appears to be a strong inhibitor for hGSTA1-1

IC50: 1.2 ± 0.1 µM
SMILES: O=c1c(O)c(-c2ccc(O)c(O)c2)oc2cc(O)ccc12 [fisetin]
